Here are results for eleven compounds from US11040053B2, “Compositions and methods for activating “stimulator of interferon gene”13 dependent signalling” (CHINOOK THERAPEUTICS, INC., priority 2015, dated 2021).

The EC50 is the concentration that produces a half-maximal response. Read a high EC50 as weaker potency.

Assay [1] has as its target hSTING(REF) (Homo sapiens, UniProt Q86WV6). Nature of the assay: Differential scanning fluorometry (DSF) binding to purified hSTING REF allele. The conditions noted are these: for hSTING Tm Shift REF: DSF, 1 mg/ml STING AA140-379, ligand 1 mM; for binding relative to OH reference compound, in words: Table 4 comment, REF allele hSTING. Further details: DNA encoding amino acids 140-379 (amino acid numbering corresponding to Swiss Prot Q86WV6); 6xHIS (N, cleaved yes); SUMO (N, cleaved yes); made in house; host or cells: Rosetta2 (DE3) E. coli. The protocol:
(§1) Cells were grown in lysogeny broth at 37° C. until a […] absorbance of 0.6 was reached. […] Cell pellets were re-suspended on ice in a buffer containing 50 mM Tris hydrochloride (Tris-HCl) pH 7.5, 500 mM sodium chloride (NaCl), 20 mM imidazole, 10% glycerol, 1 mM tris(2-carboxyethyl)phosphine hydrochloride (TCEP) and protease inhibitor tablet (Pierce) (Buffer A). Cells were lysed using an S-450D sonifier (Emmerson industrial) on ice. […] Protein was aliquoted, flash frozen in liquid nitrogen and stored at −80° C. until use.
(§2) The protein is heated in the presence of a dye that binds to and fluoresces in hydrophobic environments. The protein is thermally denatured by heating resulting in increased dye binding to the unfolded protein and fluorescence. The temperature midpoint (Tm) of a proteins denaturation is established by calculating the half maximal value of the denaturation curve. The temperature midpoint of the protein in the presence of a ligand is directly related to the affinity of the ligand for the protein and therefore its ability to stabilize the protein at higher temperatures.
(§3) Samples were placed in hard shell PCR plate (Bio-Rad). The fluorescence as a function of temperature was recorded in a CFX 96 real time PCR machine (Bio-Rad) reading on the HEX channel, excitation 450-490, emission 560-580 nm. The temperature gradient was from 15-80° C. ramping 0.5° C. per 15 seconds and recording every 0.5° C. After subtraction of the background signal from a sample lacking protein and ligand. The midpoint temperature (Tm) was calculated by fitting the curves of the fluorescence as a function of temperature to a Boltzmann sigmoidal function (Graph Pad Prism).

In assay [2] the target is T1, HAQ allele hSTING (Homo sapiens, UniProt Q86WV6, G230A/H232R/R293Q).
T1 construct: DNA encoding amino acids 140-379 (amino acid numbering corresponding to Swiss Prot Q86WV6); 6xHIS (N, cleaved yes); SUMO (N, cleaved yes); made in house; host or cells: Rosetta2 (DE3) E. coli
T1 sequence (Q86WV6 140-379 G230A/H232R/R293Q limits assumed): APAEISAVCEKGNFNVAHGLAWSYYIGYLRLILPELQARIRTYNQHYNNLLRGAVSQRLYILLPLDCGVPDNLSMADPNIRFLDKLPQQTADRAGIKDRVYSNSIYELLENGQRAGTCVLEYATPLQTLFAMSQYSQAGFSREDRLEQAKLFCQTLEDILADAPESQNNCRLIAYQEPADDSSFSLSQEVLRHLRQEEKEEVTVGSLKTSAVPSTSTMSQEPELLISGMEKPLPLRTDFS
Nature of the assay: Differential scanning fluorometry (DSF) binding to purified hSTING HAQ allele. The conditions noted are these: DSF, 1 mg/ml STING AA140-379, ligand 1 mM. The protocol: as §1, §2, §3
In general terms: Differential scanning fluorimetry follows unfolding on heating by fluorescence.

For assay [3], the target named is hSTING(WT) (Homo sapiens, UniProt Q86WV6, H232R). Nature of the assay: Differential scanning fluorometry (DSF) binding to purified hSTING WT. Conditions: DSF, 1 mg/ml STING AA140-379, ligand 1 mM. The arrangement: DNA encoding amino acids 140-379 (amino acid numbering corresponding to Swiss Prot Q86WV6); 6xHIS (N, cleaved yes); SUMO (N, cleaved yes); made in house; host or cells: Rosetta2 (DE3) E. coli. As for the experimental part:
as §1, §2, §3

Assay [4] has as its target T2, hSTING HAQ allele (Homo sapiens, UniProt Q86WV6, G230A/H232R/R293Q/R71H).
T2 construct: a human monocyte cell line containing the hSTING HAQ allele; host or cells: THP1-Dual cells
Put plainly: IRF-3 inducible secreted luciferase reporter in THP1-Dual cells without digitonin. Format: cell-based. The conditions noted are these: for EC50: without digitonin in THP1 cells (HAQ allele). The protocol: After 30 minutes, cells were washed and fresh RPMI media containing 10% FBS was added, and cells were incubated at 37° C. with 5% CO2 Cell culture supernatants from each sample were collected after overnight incubation, and 10 μL of the cell culture supernatants was added to 50 μL QUANTI-Luc reagent (Invivogen). Type I interferon activation was determined by measuring secreted luciferase levels on a SpectraMax M3 spectrophotometer (Molecular Devices). The EC50 value was determined from the dose-response curve for the 10 concentrations from the serial dilution of the reference compounds and compounds of the invention tested in this assay as listed in Table 5.
(In general: In a reporter assay the amount or activity of a reporter protein is the signal.)

Structures are written as SMILES.

hSTING(WT), sequence (Q86WV6 140-379 H232R): as the sequence (Q86WV6 140-379 G230A/H232R/R293Q limits assumed) above, with A91G, Q154R counted along it
T2 sequence (Q86WV6 whole entry R71H/G230A/H232R/R293Q): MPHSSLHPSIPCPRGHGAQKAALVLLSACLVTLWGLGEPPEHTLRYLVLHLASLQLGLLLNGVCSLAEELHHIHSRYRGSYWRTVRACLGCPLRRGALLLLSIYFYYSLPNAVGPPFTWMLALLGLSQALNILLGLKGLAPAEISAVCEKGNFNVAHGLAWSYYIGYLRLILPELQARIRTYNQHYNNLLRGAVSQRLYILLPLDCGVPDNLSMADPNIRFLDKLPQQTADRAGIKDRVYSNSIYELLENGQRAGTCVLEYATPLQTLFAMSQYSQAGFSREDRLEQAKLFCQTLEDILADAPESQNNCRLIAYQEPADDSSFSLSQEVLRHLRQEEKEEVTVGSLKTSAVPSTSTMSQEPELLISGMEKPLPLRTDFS
hSTING(REF), sequence (Q86WV6 140-379): as the sequence (Q86WV6 140-379 G230A/H232R/R293Q limits assumed) above, with A91G, R93H, Q154R counted along it

On to `CC(C)C(=O)Nc1nc2c(ncn2[C@@H]2O[C@@H]3CO[P@@](=O)(S)O[C@H]4[C@@H](F)[C@H](n5cnc6c(NC(=O)c7ccccc7)ncnc65)O[C@@H]4CO[P@@](=O)(S)O[C@H]3[C@H]2F)c(=O)[nH]1` [Compound 25, N-(9-((2R,3R,3aR,5R,7aR,9R,10R,10aR,12R,14aR)-3,10-difluoro-9-(2-isobutyramido-6-oxo-1,6-dihydro-9H-purin-9-yl)-5,12-dimercapto-5,12-dioxidooctahydro-2H,7H-difuro[3,2-d:3′,2′-j][1,3,7,9]tetraoxa[2,8]diphosphacyclododecin-2-yl)-9H-purin-6-yl)benzamide], for which, in assay [1], the “hSTING Tm Shift REF” value was found to be 8.6 °C and the “binding relative to OH reference compound, in words” value is reported as “improved binding”. The “hSTING Tm Shift HAQ” value in assay [2] stood at 14.7 °C. In addition, in assay [3], the “hSTING Tm Shift WT” value is 10.6 °C. This compound registered an EC50 in assay [4] of 78 µM.
As to `Nc1nc2c(ncn2[C@@H]2O[C@@H]3CO[P@@](=O)(S)O[C@H]4[C@@H](O)[C@H](n5cnc6c(=O)[nH]c(N)nc65)O[C@@H]4CO[P@@](=O)(S)O[C@H]3[C@H]2O)c(=O)[nH]1` [3'3'-RR-(G)(G), dithio-(Rp,Rp)-cyclic-[G(3′,5′)p-G(3′,5′)p], reference compound], the “hSTING Tm Shift REF” value in assay [1] is 10.3 °C. In assay [2], the “hSTING Tm Shift HAQ” value came to 15.3 °C. The “hSTING Tm Shift WT” value in assay [3] turned out to be 9.5 °C. In assay [4], this compound yielded a concentration giving a half-maximal response (EC50) of 75 µM.
In the case of `Nc1nc2c(ncn2[C@@H]2O[C@@H]3COP(=O)(O)O[C@H]4[C@@H](O)[C@H](n5cnc6c(=O)[nH]c(N)nc65)O[C@@H]4COP(=O)(O)O[C@H]3[C@H]2O)c(=O)[nH]1` [3'3'-(G)(G), cyclic-[G(3′,5′)p-G(3′,5′)p], reference compound], the “hSTING Tm Shift REF” value in assay [1] worked out at 6.1 °C. Also, the “hSTING Tm Shift HAQ” value in assay [2] came to 9.97 °C. Also, the “hSTING Tm Shift WT” value in assay [3] was determined as 6.1 °C.
Consider `O=C(Nc1ncnc2c1ncn2[C@@H]1O[C@@H]2CO[P@@](=O)(S)O[C@H]3[C@@H](F)[C@H](n4cnc5c(NC(=O)c6ccccc6)ncnc54)O[C@@H]3CO[P@@](=O)(S)O[C@H]2[C@H]1F)c1ccccc1` [Compound 27, N,N′-(((2R,3R,3aR,5R,7aR,9R,10R,10aR,12R,14aR)-3,10-difluoro-5,12-dimercapto-5,12-dioxidooctahydro-2H,7H-difuro [3,2-d:3′,2′-j][1,3,7,9]tetraoxa[2,8]diphosphacyclododecine-2,9-diyl)bis(9H-purine-9,6-diyl))dibenzamide], for which, in assay [1], the “hSTING Tm Shift REF” value is 8.7 °C and the “binding relative to OH reference compound, in words” value is given as “improved binding”. Besides, the “hSTING Tm Shift HAQ” value in assay [2] was 10.1 °C. Besides, in assay [3], the “hSTING Tm Shift WT” value was 8.9 °C. The compound further returned an EC50 in assay [4] of more than 150 µM.
On to `Nc1ncnc2c1ncn2[C@@H]1O[C@@H]2CO[P@@](=O)(S)O[C@H]3[C@H](F)[C@H](n4cnc5c(N)ncnc54)O[C@@H]3CO[P@@](=O)(S)O[C@H]2[C@@H]1F` [Compound 7, (2R,3S,3aR,5R,7aR,9R,10S,10aR,12R,14aR)-2,9-bis(6-amino-9H-purin-9-yl)-3,10-difluoro-5,12-dimercaptooctahydro-2H,7H-difuro[3,2-d:3′,2′-j][1,3,7,9]tetraoxa[2,8]diphosphacyclododecine 5,12-dioxide], for which, in assay [1], the “hSTING Tm Shift REF” value turned out to be 0.3 °C. In addition, the “hSTING Tm Shift HAQ” value in assay [2] stood at 11.2 °C. The “hSTING Tm Shift WT” value in assay [3] was determined as 3.1 °C. The compound further registered a half-maximal effective concentration (EC50) in assay [4] of 284 µM.
With `Nc1ncnc2c1ncn2[C@@H]1O[C@@H]2CO[P@](=O)(S)O[C@H]3[C@@H](F)[C@H](n4cnc5c(N)ncnc54)O[C@@H]3CO[P@@](=O)(S)O[C@H]2[C@H]1O` [Compound 22a, (2R,3R,3aR,5S,7aR,9R,10R,10aS,12R,14aR)-2,9-bis(6-amino-9H-purin-9-yl)-3-fluoro-10-hydroxy-5,12-dimercaptooctahydro-2H,7H-difuro[3,2-d:3′,2′-j][1,3,7,9]tetraoxa[2,8]diphosphacyclododecine 5,12-dioxide], the “hSTING Tm Shift REF” value in assay [1] came to 4.3 °C. In addition, the “hSTING Tm Shift HAQ” value in assay [2] was 11.4 °C. For the same compound, the “hSTING Tm Shift WT” value in assay [3] came to 6.4 °C. Also, a half-maximal effect in assay [4] (EC50) was put at 99 µM.
Take `Nc1nc2c(ncn2[C@@H]2O[C@@H]3CO[P@@](=O)(S)O[C@H]4[C@@H](O)[C@H](n5cnc6c(N)ncnc65)O[C@@H]4CO[P@](=O)(S)O[C@H]3[C@H]2F)c(=O)[nH]1` [Compound 23a, 2-amino-9-((2R,3R,3aR,5S,7aR,9R,10R,10aS,12R,14aR)-9-(6-amino-9H-purin-9-yl)-3-fluoro-10-hydroxy-5,12-dimercapto-5,12-dioxidooctahydro-2H,7H-difuro[3,2-d:3′,2′-j][1,3,7,9]tetraoxa[2,8]diphosphacyclododecin-2-yl)-1,9-dihydro-6H-purin-6-one]: the “hSTING Tm Shift REF” value in assay [1] came to 7.8 °C. Also, in assay [2], the “hSTING Tm Shift HAQ” value is 16.5 °C. Moreover, in assay [3], the “hSTING Tm Shift WT” value was determined as 10.6 °C. The compound also had an EC50 in assay [4] of 25 µM.
With `Nc1ncnc2c1ncn2[C@@H]1O[C@@H]2CO[P@@](=O)(S)O[C@H]3[C@H](F)[C@H](n4cnc5c(N)ncnc54)O[C@@H]3CO[P@](=O)(S)O[C@H]2[C@@H]1F` [Compound 7a, (2R,3 S,3aR,5R,7aR,9R,10S,10aR,12S,14aR)-2,9-bis(6-amino-9H-purin-9-yl)-3,10-difluoro-5,12-dimercaptooctahydro-2H,7H-difuro [3,2-d:3′,2′-j][1,3,7,9]tetraoxa[2,8]diphosphacyclododecine 5,12-dioxide], the “hSTING Tm Shift REF” value in assay [1] was 0 °C. The “hSTING Tm Shift HAQ” value in assay [2] stood at 3.1 °C. Also, the “hSTING Tm Shift WT” value in assay [3] worked out at 0.1 °C. In assay [4], this compound yielded an EC50 of more than 150 µM.
For the compound `CC(C)C(=O)Nc1nc2c(ncn2[C@@H]2O[C@@H]3CO[P@@](=O)(S)O[C@H]4[C@@H](F)[C@H](n5cnc6c(N)ncnc65)O[C@@H]4CO[P@@](=O)(S)O[C@H]3[C@H]2F)c(=O)[nH]1` [Compound 26, N-(9-((2R,3R,3aR,5R,7aR,9R,10R,10aR,12R,14aR)-9-(6-amino-9H-purin-9-yl)-3,10-difluoro-5,12-dimercapto-5,12-dioxidooctahydro-2H,7H-difuro[3,2-d:3′,2′-j][1,3,7,9]tetraoxa[2,8]diphosphacyclododecin-2-yl)-6-oxo-6,9-dihydro-1H-purin-2-yl)isobutyramide], in assay [1], the “hSTING Tm Shift REF” value turned out to be 10.5 °C and the “binding relative to OH reference compound, in words” value is reported as “improved binding”. Besides, the “hSTING Tm Shift HAQ” value in assay [2] amounted to 18.4 °C. In assay [3], the “hSTING Tm Shift WT” value turned out to be 13.3 °C. The “activity relative to OH reference compound, in words” value in assay [4] (Table 5 comment, THP1 cells without digitonin) is given as “improved activity”. For the same compound, in assay [4], it took 23 µM to reach a half-maximal effect (EC50).
`Nc1nc2c(ncn2[C@@H]2O[C@@H]3CO[P@@](=O)(S)O[C@H]4[C@@H](O)[C@H](n5cnc6c(N)ncnc65)O[C@@H]4CO[P@@](=O)(S)O[C@H]3[C@H]2O)c(=O)[nH]1` [3'3'-RR-(G)(A), reference compound]: the “hSTING Tm Shift REF” value in assay [1] was determined as 7.2 °C. Further, in assay [2], the “hSTING Tm Shift HAQ” value was found to be 21.0 °C. In addition, the “hSTING Tm Shift WT” value in assay [3] was determined as 11.1 °C. Moreover, the EC50 in assay [4] was found to be 28 µM.
In assay [4], `Nc1nc2c(ncn2[C@@H]2O[C@@H]3CO[P@@](=O)(S)O[C@H]4[C@@H](F)[C@H](n5cnc6c(=O)[nH]c(N)nc65)O[C@@H]4CO[P@](=O)(S)O[C@H]3[C@H]2F)c(=O)[nH]1` [Compound 17a, 9,9′-((2R,3R,3aR,5R,7aR,9R,10R,10aR,12S,14aR)-3,10-difluoro-5,12-dimercapto-5,12-dioxidooctahydro-2H,7H-difuro [3,2-d:3′,2′-j][1,3,7,9]tetraoxa[2,8]diphosphacyclododecine-2,9-diyl)bis(2-amino-1,9-dihydro-6H-purin-6-one)] had a concentration giving a half-maximal response (EC50) of more than 150 µM.
